Test results: patent US9371294B2, “Cycloalkenyl aryl derivatives for CETP inhibitor” (CHONG KUN DANG PHARMACEUTICAL CORP., priority 2011, dated 2016)

Assays:
[1] = target: T1, cholesteryl ester transfer protein (Homo sapiens, UniProt P11597); assay: In vitro test for the ability to inhibit cholesteryl ester transfer; assay type: biochemical; conditions: [3H]-cholesteryl oleate transfer from rHDL-agarose to LDL; human plasma as CETP source; 37° C.; 16-10000 nM, duplicate
T1 construct: As a source of cholesteryl ester transfer protein, plasma from healthy humans was used; from tissue; host or cells: plasma from healthy humans
T1 sequence (P11597 18-493): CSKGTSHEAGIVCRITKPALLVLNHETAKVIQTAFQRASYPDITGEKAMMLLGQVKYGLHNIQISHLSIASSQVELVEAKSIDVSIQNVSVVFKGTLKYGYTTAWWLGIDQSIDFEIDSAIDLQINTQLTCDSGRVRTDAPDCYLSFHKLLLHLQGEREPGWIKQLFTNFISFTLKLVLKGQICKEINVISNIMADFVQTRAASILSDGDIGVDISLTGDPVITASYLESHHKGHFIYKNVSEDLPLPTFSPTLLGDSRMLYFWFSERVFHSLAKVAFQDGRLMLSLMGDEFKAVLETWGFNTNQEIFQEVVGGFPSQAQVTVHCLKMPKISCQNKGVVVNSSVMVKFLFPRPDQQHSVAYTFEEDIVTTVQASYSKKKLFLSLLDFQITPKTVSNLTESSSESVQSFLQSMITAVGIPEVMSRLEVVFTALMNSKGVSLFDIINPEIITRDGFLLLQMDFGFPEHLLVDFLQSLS
Outline: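 Human plasma served as the CETP source, with human LDL (0.25 mg/ml) as acceptor and agarose-immobilised recombinant HDL carrying [3H]-cholesteryl oleate (0.25 mg/ml) as donor, at 37 °C. Compounds were run in duplicate at 16–10000 nM. Transferred radioactivity in the supernatant was counted by beta detection, and IC50 was fitted from the fraction of label transferred to LDL.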

[2] = tested on: golden syrian hamsters; assay: Test for anti-hyperlipidemia activity in hamsters (blood HDL-c levels); assay type: in vivo; conditions: male golden syrian hamsters; 3 mg/kg orally for 5 days; serum HDL-cholesterol 4 hours after last administration; vs vehicle control
Excerpt: […] Test for Anti-Hyderlipidemia Activity in Hamsters
1. Experimental animals As test animals, 8-week-old male golden syrian hamsters were purchased and used in the experimental. The animal facility was kept at constant temperature and constant humidity with a 12-hr dark/12-hr light cycle, and the animals were allowed to access food and water ad libitum.
2. Experimental for Anti-Hyperlipidemia Activity in Hamsters
The test animals were used in the test after an acclimation of 1 week. The test animals were divided according to body weight into several groups, each consisting of 5-8 animals. 3 mg/kg of each test compound (CETP inhibitor) was administered orally to the animals. Each test compounds was suspended in a solvent vehicle that is a solution of 5% ethanol, 10% solutol and 85% deionized water (DW), to be used. Each of test compounds suspended in a solvent vehicle was administered orally to the […] for 5 days. To the control group, a solvent vehicle itself was administered. And then, after 4 hours from the last administration, blood was collected through the cardiac puncture. The collected blood was centrifuged at 3000 rpm for 15 minutes, and the concentration of HDL-cholesterol (Biosystem) in the separated serum was measured using a biochemical analyzer (ILab 300 plus, Instrumentation Laboratory).
3. Statistical Processing
All the results were expressed as mean±SEM, and each test group and the control group were compared using one-way ANOVA test (Dunnett's test, p<0.001) in order to determine the effect of each test group.

[3] = cited from earlier work

SMILES	IC50 [1] [nM]	HDL-c Increase (%) [2] [%]	further results
COc1ccc(C(F)(F)F)cc1C1=C(CN2C(=O)O[C@H](c3cc(C(F)(F)F)cc(C(F)(F)F)c3)[C@@H]2C)CC(C)(C)CC1 [Compound 97, (4S,5R)-5-(3,5-bis(trifluoromethyl)phenyl)-3-((2-(2-methoxy-5-(trifluoromethyl)phenyl)-5,5-dimethylcyclohex-1-enyl)methyl)-4-methyloxazolidin-2-one]	20	22	–
COc1ccc(C(C)C)cc1C1=C(CN2C(=O)O[C@H](c3cc(C(F)(F)F)cc(C(F)(F)F)c3)[C@@H]2C)CC(C(F)(F)F)CC1 (stereo partly drawn) [Compound 108, (4S,5R)-5-(3,5-bis(trifluoromethyl)phenyl)-3-((2-(5-isopropyl-2-methoxyphenyl)-5-(trifluoromethyl)cyclohex-1-enyl)methyl)-4-methyloxazolidin-2-one]	20	23	–
COc1cc(F)c(C(C)C(F)(F)F)cc1C1=C(CN2C(=O)O[C@H](c3cc(C(F)(F)F)cc(C(F)(F)F)c3)[C@@H]2C)CC(C)(C)CC1 (stereo partly drawn) [Compound 132, (4S,5R)-5-(3,5-bis(trifluoromethyl)phenyl)-3-((2-(4-fluoro-2-methoxy-5-(1,1,1-trifluoropropan-2-yl)phenyl)-5,5-dimethylcyclohex-1-enyl)methyl)-4-methyloxazolidin-2-one]	50	33	–
CCC(CC)CC1(C(=O)Nc2ccccc2SC(=O)C(C)C)CCCCC1 [Dalcetrapib]	–	–	rise in HDL-C ([3]; in vivo): insufficient rise in HDL-C
O=C(O)c1cccnc1 [Niacin]	–	–	side effects ([3]; relatively large doses): facial flushing
CCOC(=O)N1c2ccc(C(F)(F)F)cc2[C@@H](N(Cc2cc(C(F)(F)F)cc(C(F)(F)F)c2)C(=O)OC)C[C@H]1CC [Torcetrapib]	–	–	effect on blood pressure ([3]; clinical trials terminated): increases in blood pressure; effect on mortality ([3]; clinical trials terminated): increase in mortality; effect on hormone levels ([3]; hormones associated with elevation in blood pressure): increases the levels of hormones, such as aldosterone and cortisol; effect on vascular wall ([3]; in vivo): increases the thickness of the vascular wall to cause inflammation

Continued, in another order:

IC50 [1] [nM]	SMILES	HDL-c Increase (%) [2] [%]	further results
5	COc1cc(F)c(C(C)C)cc1C1=C(CN2C(=O)O[C@H](c3cc(C(F)(F)F)cc(C(F)(F)F)c3)[C@@H]2C)CC(C(F)(F)F)CC1 (stereo partly drawn) [Compound 48, (4S,5R)-5-(3,5-bis(trifluoromethyl)phenyl)-3-((2-(4-fluoro-5-isopropyl-2-methoxyphenyl)-5-(trifluoromethyl)cyclohex-1-enyl)methyl)-4-methyloxazolidin-2-one]	41	–
8	COc1ccc(N(C)C(C)=O)cc1C1=C(CN2C(=O)O[C@H](c3cc(C(F)(F)F)cc(C(F)(F)F)c3)[C@@H]2C)CC(C)(C)CC1 [Compound 112, N-(3-(2-(((4S,5R)-5-(3,5-bis(trifluoromethyl)phenyl)-4-methyl-2-oxooxazolidin-3-yl)methyl)-4,4-dimethylcyclohex-1-enyl)-4-methoxyphenyl)-N-methylacetamide]	43	–
10	COc1ccc(C(C)(C)C)cc1C1=C(CN2C(=O)O[C@H](c3cc(C(F)(F)F)cc(C(F)(F)F)c3)[C@@H]2C)CC(C)(C)CC1 [Compound 115, (4S,5R)-5-(3,5-bis(trifluoromethyl)phenyl)-3-((2-(5-tert-butyl-2-methoxyphenyl)-5,5-dimethylcyclohex-1-enyl)methyl)-4-methyloxazolidin-2-one]	29	–
14	COc1cc(F)c(C(C)C)cc1C1=C(CN2C(=O)O[C@H](c3cc(C(F)(F)F)cc(C(F)(F)F)c3)[C@@H]2C)CC2(CC1)CC2 [Compound 274, (4S,5R)-5-(3,5-bis(trifluoromethyl)phenyl)-3-((6-(4-fluoro-5-isopropyl-2-methoxyphenyl)spiro[2.5]oct-5-en-5-yl)methyl)-4-methyloxazolidin-2-one]	21	–
12	COc1ccc(CC(C)(C)C(=O)O)cc1C1=C(CN2C(=O)O[C@H](c3cc(C(F)(F)F)cc(C(F)(F)F)c3)[C@@H]2C)CC(C)(C)CC1 [Compound 286, 3-(3-(2-(((4S,5R)-5-(3,5-bis(trifluoromethyl)phenyl)-4-methyl-2-oxooxazolidin-3-yl)methyl)-4,4-dimethylcyclohex-1-enyl)-4-methoxyphenyl)-2,2-dimethylpropanoic acid]	42	–
6	COc1cc(F)c(C2(C)CC2)cc1C1=C(CN2C(=O)O[C@H](c3cc(C(F)(F)F)cc(C(F)(F)F)c3)[C@@H]2C)CC(C)(C)CC1 [Compound 302, (4S,5R)-5-(3,5-bis(trifluoromethyl)phenyl)-3-((2-(4-fluoro-2-methoxy-5-(1-methylcyclopropyl)phenyl)-5,5-dimethylcyclohex-1-enyl)methyl)-4-methyloxazolidin-2-one]	38	–
